Test results published in ChEMBL document CHEMBL4828765, “Design and Development of a Chemical Probe for Pseudokinase Ca2+/calmodulin-Dependent Ser/Thr Kinase” (J Med Chem, 2021).
Calls of active or inactive are those of the source. No cut-off for these calls is given here.

How the values were obtained:
[1] = molecular target: T1, Mitogen-activated protein kinase kinase kinase 2 (Homo sapiens) (UniProt Q9Y2U5); assay: Binding affinity to human MAP3K2 at 1 uM by KINOMEscan scanMAX assay relative to control
T1 sequence (whole entry): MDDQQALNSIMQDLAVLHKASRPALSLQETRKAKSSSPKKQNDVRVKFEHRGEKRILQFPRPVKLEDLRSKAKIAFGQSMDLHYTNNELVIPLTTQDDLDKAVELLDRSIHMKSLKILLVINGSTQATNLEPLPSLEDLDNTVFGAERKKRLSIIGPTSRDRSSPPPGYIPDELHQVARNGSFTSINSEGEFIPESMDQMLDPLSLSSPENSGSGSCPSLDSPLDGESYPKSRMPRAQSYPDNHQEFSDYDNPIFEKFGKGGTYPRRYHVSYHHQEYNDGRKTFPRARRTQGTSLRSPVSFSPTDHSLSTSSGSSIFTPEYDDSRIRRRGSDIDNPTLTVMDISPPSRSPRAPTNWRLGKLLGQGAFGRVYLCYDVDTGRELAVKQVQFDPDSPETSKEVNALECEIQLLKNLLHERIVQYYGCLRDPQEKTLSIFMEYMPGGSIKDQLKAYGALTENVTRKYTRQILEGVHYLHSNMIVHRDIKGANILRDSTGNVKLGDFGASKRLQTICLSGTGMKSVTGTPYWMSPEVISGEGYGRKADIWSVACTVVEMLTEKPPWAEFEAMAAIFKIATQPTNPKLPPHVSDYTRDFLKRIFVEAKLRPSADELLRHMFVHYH

[2] = molecular target: T2, Mitogen-activated protein kinase kinase kinase 2 (Homo sapiens, UniProt Q9Y2U5); assay: Binding affinity to human MAP3K2 by KINOMEscan scanMAX assay
T2 sequence (Q9Y2U5 whole entry): T1 sequence (whole entry)

[3] = molecular target: T3, Tyrosine-protein kinase ABL1 (Homo sapiens, UniProt P00519); assay: Inhibition of tracer K5 binding to NanoLuc-fused ABL1 (unknown origin) expressed in HEK293T cells measured after 2 hrs by NanoBRET assay; format: cell-based
T3 sequence (P00519 whole entry, the tested form may be a part): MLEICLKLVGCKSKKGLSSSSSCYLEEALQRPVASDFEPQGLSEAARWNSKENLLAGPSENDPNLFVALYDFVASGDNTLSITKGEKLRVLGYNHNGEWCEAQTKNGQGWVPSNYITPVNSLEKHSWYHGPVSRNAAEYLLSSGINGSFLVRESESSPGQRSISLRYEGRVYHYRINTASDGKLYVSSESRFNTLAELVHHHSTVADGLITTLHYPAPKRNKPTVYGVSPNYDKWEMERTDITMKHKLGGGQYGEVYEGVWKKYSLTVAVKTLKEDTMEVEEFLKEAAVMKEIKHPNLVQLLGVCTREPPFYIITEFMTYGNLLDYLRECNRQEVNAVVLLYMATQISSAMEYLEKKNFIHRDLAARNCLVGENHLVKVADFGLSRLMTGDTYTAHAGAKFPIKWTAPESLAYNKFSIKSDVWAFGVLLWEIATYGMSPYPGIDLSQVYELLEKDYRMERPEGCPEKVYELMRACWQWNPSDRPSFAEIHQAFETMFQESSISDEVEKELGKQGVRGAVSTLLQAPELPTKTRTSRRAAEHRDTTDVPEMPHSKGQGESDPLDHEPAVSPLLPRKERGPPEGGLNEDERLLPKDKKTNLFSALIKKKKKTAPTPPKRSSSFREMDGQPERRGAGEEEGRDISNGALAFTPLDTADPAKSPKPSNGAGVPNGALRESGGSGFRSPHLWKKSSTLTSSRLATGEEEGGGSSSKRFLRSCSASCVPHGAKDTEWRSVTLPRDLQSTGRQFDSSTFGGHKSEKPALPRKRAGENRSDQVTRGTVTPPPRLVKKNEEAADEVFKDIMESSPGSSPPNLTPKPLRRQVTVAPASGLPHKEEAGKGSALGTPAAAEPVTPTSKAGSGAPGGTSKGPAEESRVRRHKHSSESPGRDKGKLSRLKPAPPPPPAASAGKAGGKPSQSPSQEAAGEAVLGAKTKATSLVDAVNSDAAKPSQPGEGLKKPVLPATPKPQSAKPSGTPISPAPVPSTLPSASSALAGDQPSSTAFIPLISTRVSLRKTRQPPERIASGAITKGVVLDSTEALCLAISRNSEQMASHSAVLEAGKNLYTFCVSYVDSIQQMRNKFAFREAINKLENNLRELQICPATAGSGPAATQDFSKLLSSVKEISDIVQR

[4] = molecular target: T4, Tyrosine-protein kinase receptor TYRO3 (Homo sapiens, UniProt Q06418); assay: Inhibition of tracer K5 binding to NanoLuc-fused TYRO3 (unknown origin) expressed in HEK293T cells measured after 2 hrs by NanoBRET assay; format: cell-based
T4 sequence (Q06418 whole entry): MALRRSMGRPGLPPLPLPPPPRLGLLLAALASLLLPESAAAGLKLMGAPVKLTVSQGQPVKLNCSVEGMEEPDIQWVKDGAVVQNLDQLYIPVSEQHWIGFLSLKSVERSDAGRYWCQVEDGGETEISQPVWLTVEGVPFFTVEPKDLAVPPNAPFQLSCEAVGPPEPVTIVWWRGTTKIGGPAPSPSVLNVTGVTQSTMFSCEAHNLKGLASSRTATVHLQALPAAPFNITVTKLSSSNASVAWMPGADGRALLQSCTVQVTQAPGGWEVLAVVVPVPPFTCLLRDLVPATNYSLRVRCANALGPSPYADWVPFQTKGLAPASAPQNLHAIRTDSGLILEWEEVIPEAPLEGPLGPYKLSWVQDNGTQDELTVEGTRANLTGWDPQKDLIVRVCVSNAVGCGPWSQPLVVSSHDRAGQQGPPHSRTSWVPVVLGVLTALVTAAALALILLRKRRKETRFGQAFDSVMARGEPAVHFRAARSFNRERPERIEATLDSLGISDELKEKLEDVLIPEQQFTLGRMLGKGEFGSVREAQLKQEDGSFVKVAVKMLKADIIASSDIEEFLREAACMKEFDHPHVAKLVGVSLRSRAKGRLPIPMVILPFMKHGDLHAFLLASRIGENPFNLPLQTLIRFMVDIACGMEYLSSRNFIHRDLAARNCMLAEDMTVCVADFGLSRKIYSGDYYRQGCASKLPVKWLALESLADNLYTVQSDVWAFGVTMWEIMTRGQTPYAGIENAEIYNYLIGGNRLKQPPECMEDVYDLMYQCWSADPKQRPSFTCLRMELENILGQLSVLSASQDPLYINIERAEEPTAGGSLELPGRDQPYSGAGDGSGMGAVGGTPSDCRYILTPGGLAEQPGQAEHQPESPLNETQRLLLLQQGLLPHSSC

[5] = molecular target: Hepatocyte growth factor receptor (Homo sapiens) (UniProt P08581); assay: Binding affinity to human MET at 1 uM by KINOMEscan scanMAX assay relative to control
Hepatocyte growth factor receptor (Homo sapiens), sequence (P08581 whole entry): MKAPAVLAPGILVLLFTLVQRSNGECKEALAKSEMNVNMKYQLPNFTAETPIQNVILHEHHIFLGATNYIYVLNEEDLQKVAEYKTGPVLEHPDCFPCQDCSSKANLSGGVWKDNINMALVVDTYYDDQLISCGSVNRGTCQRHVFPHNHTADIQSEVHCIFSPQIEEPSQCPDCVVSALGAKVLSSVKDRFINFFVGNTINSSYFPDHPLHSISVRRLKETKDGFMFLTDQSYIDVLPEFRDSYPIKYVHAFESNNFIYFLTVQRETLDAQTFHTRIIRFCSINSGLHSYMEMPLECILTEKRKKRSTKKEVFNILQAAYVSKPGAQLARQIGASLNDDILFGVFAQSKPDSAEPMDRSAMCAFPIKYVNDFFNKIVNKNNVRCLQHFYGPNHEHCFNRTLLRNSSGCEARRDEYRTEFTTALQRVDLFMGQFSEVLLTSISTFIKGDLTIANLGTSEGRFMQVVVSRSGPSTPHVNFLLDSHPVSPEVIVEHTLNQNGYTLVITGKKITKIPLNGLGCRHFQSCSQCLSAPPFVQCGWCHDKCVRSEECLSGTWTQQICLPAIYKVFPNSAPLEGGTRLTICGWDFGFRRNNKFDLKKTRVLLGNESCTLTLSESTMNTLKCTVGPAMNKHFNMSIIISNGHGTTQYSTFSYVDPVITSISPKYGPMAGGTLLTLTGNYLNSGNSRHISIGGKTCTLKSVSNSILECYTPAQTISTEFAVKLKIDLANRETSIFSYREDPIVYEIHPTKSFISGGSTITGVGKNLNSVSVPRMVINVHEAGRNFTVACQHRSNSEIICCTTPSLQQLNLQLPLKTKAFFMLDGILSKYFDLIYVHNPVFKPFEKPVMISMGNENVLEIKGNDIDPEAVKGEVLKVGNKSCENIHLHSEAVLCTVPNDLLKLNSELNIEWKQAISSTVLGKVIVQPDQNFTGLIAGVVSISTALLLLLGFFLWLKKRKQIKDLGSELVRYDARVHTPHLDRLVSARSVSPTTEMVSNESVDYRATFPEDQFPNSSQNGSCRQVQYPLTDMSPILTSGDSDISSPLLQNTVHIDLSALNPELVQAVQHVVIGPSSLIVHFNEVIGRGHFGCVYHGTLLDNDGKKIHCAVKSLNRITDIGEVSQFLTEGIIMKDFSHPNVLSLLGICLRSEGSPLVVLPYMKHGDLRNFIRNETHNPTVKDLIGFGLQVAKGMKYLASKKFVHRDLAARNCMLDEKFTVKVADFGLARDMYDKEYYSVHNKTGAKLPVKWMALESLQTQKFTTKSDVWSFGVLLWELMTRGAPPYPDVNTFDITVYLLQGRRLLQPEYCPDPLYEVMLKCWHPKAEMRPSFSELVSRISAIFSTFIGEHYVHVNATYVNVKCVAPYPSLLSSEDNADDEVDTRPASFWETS

[6] = molecular target: T5, Tyrosine-protein kinase Mer (Homo sapiens, UniProt Q12866); assay: Binding affinity to human MERTK by KINOMEscan scanMAX assay
T5 sequence (Q12866 whole entry): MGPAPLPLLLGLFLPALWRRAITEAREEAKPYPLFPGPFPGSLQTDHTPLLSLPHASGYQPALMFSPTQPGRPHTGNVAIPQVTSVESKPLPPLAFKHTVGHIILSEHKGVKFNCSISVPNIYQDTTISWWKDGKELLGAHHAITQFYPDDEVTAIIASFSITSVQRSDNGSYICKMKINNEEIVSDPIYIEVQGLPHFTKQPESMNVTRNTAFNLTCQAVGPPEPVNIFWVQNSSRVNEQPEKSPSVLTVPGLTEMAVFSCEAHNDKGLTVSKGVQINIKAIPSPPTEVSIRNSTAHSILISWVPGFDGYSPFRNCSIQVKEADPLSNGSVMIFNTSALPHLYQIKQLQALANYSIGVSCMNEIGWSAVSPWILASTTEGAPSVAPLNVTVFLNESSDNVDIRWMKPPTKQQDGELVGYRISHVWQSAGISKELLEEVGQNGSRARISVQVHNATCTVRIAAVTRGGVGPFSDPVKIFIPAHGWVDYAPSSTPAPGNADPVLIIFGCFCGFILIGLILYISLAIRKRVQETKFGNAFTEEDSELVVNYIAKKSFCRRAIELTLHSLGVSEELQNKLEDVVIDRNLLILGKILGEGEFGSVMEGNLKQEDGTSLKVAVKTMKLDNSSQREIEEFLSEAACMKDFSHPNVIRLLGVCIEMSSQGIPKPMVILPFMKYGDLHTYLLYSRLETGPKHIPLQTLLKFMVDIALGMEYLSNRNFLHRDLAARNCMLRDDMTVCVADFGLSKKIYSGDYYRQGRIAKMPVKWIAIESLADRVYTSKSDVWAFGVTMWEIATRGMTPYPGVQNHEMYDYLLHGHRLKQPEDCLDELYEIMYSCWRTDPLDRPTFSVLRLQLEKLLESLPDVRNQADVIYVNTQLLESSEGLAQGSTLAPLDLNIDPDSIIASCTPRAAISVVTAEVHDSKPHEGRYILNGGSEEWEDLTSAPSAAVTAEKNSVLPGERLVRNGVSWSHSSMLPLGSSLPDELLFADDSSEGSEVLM

[7] = molecular target: T3, Tyrosine-protein kinase ABL1; assay: Binding affinity to human non-phosphorylated ABL1 by KINOMEscan scanMAX assay
[8] = molecular target: Tyrosine-protein kinase receptor UFO (Homo sapiens) (UniProt P30530); assay: Binding affinity to AXL (unknown origin) assessed as change in melting temperature by SYPRO orange dye based DSF assay
Homo sapiens = organism: Homo sapiens; assay: Binding affinity to MERTK-AXL mutant (unknown origin) expressed in Escherichia coli Rosetta cells assessed as change in melting temperature by SYPRO orange dye based DSF assay
[9] = molecular target: T3, Tyrosine-protein kinase ABL1
Description: Binding affinity to non-phosphorylated ABL1 (unknown origin) assessed as change in melting temperature by SYPRO orange dye based DSF assay

[10] = molecular target: T5, Tyrosine-protein kinase Mer; assay: Inhibition of tracer K5 binding to NanoLuc-fused MERTK (unknown origin) expressed in HEK293T cells measured after 2 hrs by NanoBRET assay; format: cell-based
[11] = molecular target: T3, Tyrosine-protein kinase ABL1; assay: Binding affinity to human non-phosphorylated ABL1 at 1 uM by KINOMEscan scanMAX assay relative to control
[12] = molecular target: Tyrosine-protein kinase receptor UFO (Homo sapiens) (UniProt P30530); assay: Binding affinity to human AXL at 1 uM by KINOMEscan scanMAX assay relative to control
[13] = molecular target: T6, Casein kinase I isoform epsilon (Homo sapiens, UniProt P49674); assay: Binding affinity to human CSNK1E by KINOMEscan scanMAX assay
Target sequence in this assay (P49674 whole entry, the tested form may be a part, canonical isoform): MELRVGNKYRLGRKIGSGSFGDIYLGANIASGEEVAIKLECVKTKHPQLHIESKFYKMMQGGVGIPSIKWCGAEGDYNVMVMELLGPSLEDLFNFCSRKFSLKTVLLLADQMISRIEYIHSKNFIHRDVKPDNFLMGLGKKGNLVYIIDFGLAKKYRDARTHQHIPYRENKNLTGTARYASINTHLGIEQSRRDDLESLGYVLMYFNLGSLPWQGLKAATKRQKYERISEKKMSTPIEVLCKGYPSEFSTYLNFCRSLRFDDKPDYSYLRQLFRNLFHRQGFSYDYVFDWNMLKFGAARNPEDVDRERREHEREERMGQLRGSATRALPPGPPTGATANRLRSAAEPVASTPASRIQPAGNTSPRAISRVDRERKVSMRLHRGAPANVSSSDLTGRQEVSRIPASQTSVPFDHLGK

[14] = molecular target: T7, Ribosomal protein S6 kinase alpha-2 (Homo sapiens, UniProt Q15349); assay: Binding affinity to human N-terminal RSK3 kinase domain 1 by KINOMEscan scanMAX assay
T7 sequence (Q15349 whole entry, the tested form may be a part): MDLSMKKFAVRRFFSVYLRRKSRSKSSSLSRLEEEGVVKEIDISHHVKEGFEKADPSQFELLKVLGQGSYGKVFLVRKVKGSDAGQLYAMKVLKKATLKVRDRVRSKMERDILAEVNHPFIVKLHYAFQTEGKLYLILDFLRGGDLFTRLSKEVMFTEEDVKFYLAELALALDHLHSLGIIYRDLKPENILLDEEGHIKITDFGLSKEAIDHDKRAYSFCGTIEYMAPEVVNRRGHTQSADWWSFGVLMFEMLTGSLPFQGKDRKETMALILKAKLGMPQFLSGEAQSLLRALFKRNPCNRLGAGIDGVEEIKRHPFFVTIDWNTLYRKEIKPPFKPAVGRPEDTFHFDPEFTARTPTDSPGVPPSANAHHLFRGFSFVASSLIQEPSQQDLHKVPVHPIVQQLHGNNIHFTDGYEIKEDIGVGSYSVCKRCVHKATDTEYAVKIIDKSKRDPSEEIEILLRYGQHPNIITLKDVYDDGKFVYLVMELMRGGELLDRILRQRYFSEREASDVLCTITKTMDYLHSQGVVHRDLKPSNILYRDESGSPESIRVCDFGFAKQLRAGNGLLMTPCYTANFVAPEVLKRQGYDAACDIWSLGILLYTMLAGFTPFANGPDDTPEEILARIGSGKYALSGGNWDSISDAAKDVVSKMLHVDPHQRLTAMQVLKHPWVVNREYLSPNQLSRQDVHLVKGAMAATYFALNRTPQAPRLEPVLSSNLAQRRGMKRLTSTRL

[15] = molecular target: T8, Tyrosine-protein kinase Mer (Homo sapiens) (UniProt Q12866); assay: Binding affinity to human MERTK at 1 uM by KINOMEscan scanMAX assay relative to control
T8 sequence (whole entry): T5 sequence (Q12866 whole entry)

[16] = molecular target: T6, Casein kinase I isoform epsilon; assay: Binding affinity to CSNK1E (unknown origin) assessed as change in melting temperature by SYPRO orange dye based DSF assay
Target sequence in this assay (P49674 whole entry, looked up, the tested form may be a part, canonical isoform): as the sequence (P49674 whole entry, the tested form may be a part, canonical isoform) above

[17] = molecular target: T7, Ribosomal protein S6 kinase alpha-2; assay: Binding affinity to human N-terminal RSK3 kinase domain 1 at 1 uM by KINOMEscan scanMAX assay relative to control
[18] = molecular target: T8, Tyrosine-protein kinase Mer (Homo sapiens); assay: Binding affinity to MERTK (571 to 864 residue) (unknown origin) expressed in Escherichia coli Rosetta cells assessed as change in melting temperature by SYPRO orange dye based DSF assay
[19] = molecular target: T6, Casein kinase I isoform epsilon; assay: Binding affinity to human CSNK1E at 1 uM by KINOMEscan scanMAX assay relative to control
Target sequence in this assay (P49674 whole entry, looked up, the tested form may be a part, canonical isoform): as the sequence (P49674 whole entry, the tested form may be a part, canonical isoform) above

[20] = molecular target: T9, Tyrosine-protein kinase receptor UFO (Homo sapiens, UniProt P30530); assay: Inhibition of tracer K5 binding to NanoLuc-fused AXL (unknown origin) expressed in HEK293T cells measured after 2 hrs by NanoBRET assay; format: cell-based
T9 sequence (P30530 whole entry): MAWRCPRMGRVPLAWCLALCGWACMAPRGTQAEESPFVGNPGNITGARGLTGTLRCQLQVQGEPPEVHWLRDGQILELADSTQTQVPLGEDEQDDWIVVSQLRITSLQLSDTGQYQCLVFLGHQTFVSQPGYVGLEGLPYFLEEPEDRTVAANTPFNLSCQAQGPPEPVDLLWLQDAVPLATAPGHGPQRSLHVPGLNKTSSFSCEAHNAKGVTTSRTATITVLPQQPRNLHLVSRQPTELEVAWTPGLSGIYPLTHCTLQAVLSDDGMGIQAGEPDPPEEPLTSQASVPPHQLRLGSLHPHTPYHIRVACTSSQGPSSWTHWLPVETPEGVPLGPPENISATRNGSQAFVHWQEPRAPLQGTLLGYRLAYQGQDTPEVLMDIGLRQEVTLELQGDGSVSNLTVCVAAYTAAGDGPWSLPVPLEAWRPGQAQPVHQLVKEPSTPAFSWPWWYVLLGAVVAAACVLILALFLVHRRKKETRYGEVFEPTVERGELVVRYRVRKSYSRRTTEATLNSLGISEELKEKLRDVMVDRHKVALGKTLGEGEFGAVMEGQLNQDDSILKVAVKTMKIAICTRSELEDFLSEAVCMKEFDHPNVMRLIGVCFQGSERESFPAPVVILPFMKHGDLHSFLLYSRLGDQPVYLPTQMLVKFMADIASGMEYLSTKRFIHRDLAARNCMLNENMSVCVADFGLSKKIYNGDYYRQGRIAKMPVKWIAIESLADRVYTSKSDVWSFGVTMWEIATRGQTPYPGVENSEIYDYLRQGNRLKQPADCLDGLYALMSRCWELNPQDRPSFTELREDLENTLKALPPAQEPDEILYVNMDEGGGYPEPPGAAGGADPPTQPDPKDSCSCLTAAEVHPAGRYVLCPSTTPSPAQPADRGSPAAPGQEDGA

[21] = molecular target: T6, Casein kinase I isoform epsilon; assay: Inhibition of tracer K5 binding to NanoLuc-fused CSNK1E (unknown origin) expressed in HEK293T cells measured after 2 hrs by NanoBRET assay; format: cell-based
Target sequence in this assay (P49674 whole entry, the tested form may be a part, canonical isoform): as the sequence (P49674 whole entry, the tested form may be a part, canonical isoform) above

P19 [22] = assay: Induction of cell death in mouse P19 cell differentiation model at 2 uM preincubated for 4 days followed by cytosine arabinoside addition measured after 6 hrs by immunostaining based microscopic analysis; format: functional; details: time 102.0 hrs
P19 [23] = assay: Induction of beta3-tubulin abundance in mouse P19 cells at 1 uM preincubated for 4 days followed by cytosine arabinoside addition measured after 6 hrs by immunostaining based microscopic analysis; format: functional, cell-based; details: time 4.0 day
P19 [24] = assay: Induction of cell death in mouse P19 cell differentiation model at 1 uM preincubated for 4 days followed by cytosine arabinoside addition measured after 6 hrs by immunostaining based microscopic analysis; format: functional; details: time 102.0 hrs

Work on `O=C(NCCCN1CCOC1=O)c1cnc(NCc2cc(Cl)ccc2Cl)nc1NC1CCCC1` yielded an Activity [1] of 63%, a Kd [2] of 690 nM and an IC50 [3] greater than 10000 nM. The IC50 [4] was 700 nM, the Ki [4] was 120 nM and the Activity [5] was 63%. For the same compound, the Kd [6] was 570 nM, the Kd [7] was 740 nM and the deltaTm [8] was 0.2 K. It also gave a deltaTm (Homo sapiens) of 0.2 K, a deltaTm [9] of 8.6 K and an IC50 [10] greater than 10000 nM. It also gave an Activity [11] of 73%, an Activity [12] of 61% and a Kd [13] of 770 nM. For the same compound, the Kd [14] was 1300 nM, the Activity [15] was 75% and the deltaTm [16] was 5.6 K. The Activity [17] was 67%, the deltaTm [18] was -0.2 K and the Activity [19] was 76%.
`Cc1cc(Br)c(CNc2ncc(C(=O)NCCCN3CCOC3=O)c(NC3CCCCC3)n2)cc1Br` was tested, and the IC50 [3] was greater than 10000 nM, the IC50 [4] was 8730 nM and the IC50 [20] was greater than 10000 nM. For the same compound, the deltaTm (Homo sapiens) was 0.1 K, the deltaTm [9] was 8.4 K and the IC50 [10] was greater than 10000 nM. For the same compound, the IC50 [21] was 22100 nM, the deltaTm [16] was 3.8 K and the deltaTm [18] was -0.5 K.
With `CCN(Cc1ccc(Cl)cc1)c1ncc(C(=O)NCCCN2CCCC2=O)c(NC2CCCC2)n1` the IC50 [3] was greater than 10000 nM, the IC50 [4] was greater than 10000 nM and the IC50 [20] was greater than 10000 nM. For the same compound, the IC50 [10] was greater than 10000 nM, the Activity (P19 [22]) was “inactive” and the Activity (P19 [23]) was “inactive”. For the same compound, the Activity (P19 [24]) was “inactive”.
